Assay results as given in patent US11912671B1, “Ethyl 3-(5-(3-fluorophenyl)-4-phenyl-4H-1,2,4- triazol-3-ylthio)propanoate as an antimicrobial compound” (KING FAISAL UNIVERSITY, priority 2023, dated 2024).

How the values were obtained:
Format in all cases: cell-based
[1] = system: Chrysosporium keratinophilum; test: agar plate disc-diffusion, antifungal inhibition zone; settings: Sabouraud's dextrose agar, 72 hours
Protocol: (§1) The agar plate disc-diffusion method was applied. […] The discs were then placed onto the surface of agar plates (nutrient agar for bacteria and Sabouraud's dextrose agar for fungi) seeded with the test organism. Each plate contained 15 mL of the agar medium, previously seeded with 0.2 mL of the broth culture of each organism pregrown for 18 hours. The plates were incubated at 37° C. for 48 hours, and 72 hours for fungi. The inhibition zones were measured in mm. Discs impregnated with DMSO were used as a control, and its inhibition zone was subtracted from the tested compound actual inhibition zone.

Aspergillus flavus = test: as above; settings: Sabouraud's dextrose agar, 72 hours
Protocol: as §1

Bacillus cereus = test: agar plate disc-diffusion, antibacterial inhibition zone; settings: nutrient agar, 37° C., 48 hours
Protocol: as §1

Staphylococcus aureus = test: as above; settings: nutrient agar, 37° C., 48 hours
Protocol: as §1

Pseudomonas aeruginosa = test: as above; settings: nutrient agar, 37° C., 48 hours
Protocol: as §1

Escherichia coli = test: as above; settings: nutrient agar, 37° C., 48 hours
Protocol: as §1

[2] = A = concentration of comp. = 10,000 μL
[3] = B = concentration of comp. = 30,000 μL
[4] = C = concentration of comp. = 50,000 μL

CCOC(=O)CCSc1nnc(-c2cccc(F)c2)n1-c1ccccc1 [III, ethyl 3-(5-(3-fluorophenyl)-4-phenyl-4H-1,2,4-triazol-3-ylthio)propanoate]
inhibition zone, Chrysosporium keratinophilum, A [1, 2]: 26 mm | inhibition zone, Chrysosporium keratinophilum, B [1, 3]: 28 mm | inhibition zone, Chrysosporium keratinophilum, C [1, 4]: 46 mm | inhibition zone, Aspergillus flavus, A (Aspergillus flavus; [2]): 25 mm | inhibition zone, Aspergillus flavus, B (Aspergillus flavus; [3]): 28 mm | inhibition zone, Aspergillus flavus, C (Aspergillus flavus; [4]): 34 mm | inhibition zone, Bacillus Cereus, A (Bacillus cereus; [2]): 25 mm | inhibition zone, Bacillus Cereus, B (Bacillus cereus; [3]): 28 mm | inhibition zone, Bacillus Cereus, C (Bacillus cereus; [4]): 38 mm | inhibition zone, Staphylococcus aureus, A (Staphylococcus aureus; [2]): 17 mm | inhibition zone, Staphylococcus aureus, B (Staphylococcus aureus; [3]): 21 mm | inhibition zone, Staphylococcus aureus, C (Staphylococcus aureus; [4]): 30 mm | inhibition zone, Pseudomonas aeruginosa, A (Pseudomonas aeruginosa; [2]): 26 mm | inhibition zone, Pseudomonas aeruginosa, B (Pseudomonas aeruginosa; [3]): 29 mm | inhibition zone, Pseudomonas aeruginosa, C (Pseudomonas aeruginosa; [4]): 46 mm | inhibition zone, Escherichia coli, A (Escherichia coli; [2]): 27 mm | inhibition zone, Escherichia coli, B (Escherichia coli; [3]): 36 mm | inhibition zone, Escherichia coli, C (Escherichia coli; [4]): 53 mm
